Test results published in patent publication US5120751A, “Benzoylphenyl pyridinylthiazolidine compounds as platelet activating antagonists” (Abbott Laboratories, priority 1991, dated 1992).
Counter-ions that a name gives are not always drawn.

molecular target: PAF receptor (Oryctolagus cuniculus, UniProt G1TEI7); assay: PAF receptor binding assay: inhibition of specific [3H]C18-PAF binding to rabbit platelet membranes; conditions: 0.6 nM [3H]C18-PAF, 60 minutes at 22-23 °C, pH 7.0, Ki calculated from IC50 (Cheng and Prusoff)
Sequence (G1TEI7 1-342): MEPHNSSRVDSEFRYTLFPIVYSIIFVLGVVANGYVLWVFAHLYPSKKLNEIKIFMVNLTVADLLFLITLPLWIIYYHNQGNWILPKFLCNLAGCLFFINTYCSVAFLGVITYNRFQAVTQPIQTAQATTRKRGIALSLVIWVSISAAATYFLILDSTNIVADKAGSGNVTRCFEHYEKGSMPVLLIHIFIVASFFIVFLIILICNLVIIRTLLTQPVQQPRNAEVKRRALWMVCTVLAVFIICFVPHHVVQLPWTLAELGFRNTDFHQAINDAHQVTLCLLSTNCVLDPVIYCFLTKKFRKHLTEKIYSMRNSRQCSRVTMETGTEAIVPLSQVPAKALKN

Ki [nM] | Compound
700 | CNC(=O)N1C(C(=O)Nc2cccc(C(=O)c3ccccc3)c2)CSC1c1cccnc1 (stereo not drawn) [Example 12, N-(3-benzoylphenyl) 2-(3-pyridinyl)-3-(N-methylcarbamoyl)-4-thiazolidinecarboxamide]
260 | COc1cc(C(=O)c2cccc(N(C)C(=O)NC3CSC(c4cccnc4)S3)c2)cc(OC)c1OC (stereo not drawn) [Example 20a, N-methyl-N-[3-(3,4,5-trimethoxybenzoyl)phenyl] N'-[2-(3-pyridinyl)dithiolan-4-yl] urea]
7000 | CN(C(=O)NC1CSC(c2cccnc2)S1)c1cccc(C(=O)c2ccccc2)c1 (stereo not drawn) [Example 19b, N-methyl-N-(3-benzoylphenyl) N'-[2-(3-pyridinyl)dithiolan-4-yl] urea]
1 | COc1cc(C(=O)c2cccc(NC(=O)C3CSC(c4cccnc4)N3)c2)cc(OC)c1OC (stereo not drawn) [Example 4, N-[3-(3,4,5-trimethoxybenzoyl)phenyl] 2-(3-pyridinyl)-4-thiazolidinecarboxamide dihydrochloride]
1300 | O=C(Nc1cccc(C(=O)c2ccccc2)c1)NC1CSC(c2cccnc2)S1 (stereo not drawn) [Example 17a, N-(3-benzoylphenyl) N'-[2-(3-pyridinyl)dithiolan-4-yl] urea]
500 | O=CN1C(C(=O)Nc2cccc(C(=O)c3ccccc3)c2)CSC1c1cccnc1 (stereo not drawn) [Example 11, N-(3-benzoylphenyl) 2-(3-pyridinyl)-3-formyl-4-thiazolidinecarboxamide]
570 | COc1cc(C(=O)c2cccc(NC(=O)C3CSC(c4cccnc4)S3)c2)cc(OC)c1OC (stereo not drawn) [Example 10, N-[3-(3,4,5-trimethoxybenzoyl)phenyl] 2-(3-pyridinyl)-4-dithiolanecarboxamide]
2 | COc1cc(OC)cc(C(=O)c2cccc(NC(=O)C3CSC(c4cccnc4)N3)c2)c1 (stereo not drawn) [Example 7, N-[3-(3,5-dimethoxybenzoyl)phenyl] 2-(3-pyridinyl)-4-thiazolidinecarboxamide dihydrochloride]
2900 | CN(C(=O)NC1CSC(c2cccnc2)S1)c1cccc(C(=O)c2ccccc2)c1 (stereo not drawn) [Example 19a, N-methyl-N-(3-benzoylphenyl) N'-[2-(3-pyridinyl)dithiolan-4-yl] urea]
2200 | COc1cc(C(=O)c2cccc(N(C)C(=O)NC3CSC(c4cccnc4)S3)c2)cc(OC)c1OC (stereo not drawn) [Example 20b, N-methyl-N-[3-(3,4,5-trimethoxybenzoyl)phenyl] N'-[2-(3-pyridinyl)dithiolan-4-yl] urea]
650 | COc1cc(C(=O)c2cccc(NC(=O)NC3CSC(c4cccnc4)S3)c2)cc(OC)c1OC (stereo not drawn) [Example 18a, N-[3-(3,4,5-trimethoxybenzoyl)phenyl] N'-[2-(3-pyridinyl)dithiolan-4-yl] urea]
2600 | COc1cc(C(=O)c2cccc(N(C)C(=O)C3CSC(c4cccnc4)S3)c2)cc(OC)c1OC (stereo not drawn) [Example 16, N-[3-(3,4,5-trimethoxybenzoyl)phenyl] N-methyl 2-(3-pyridinyl)-4-dithiolanecarboxamide hydrochloride]
780 | O=C(c1ccccc1)c1cccc(NC(=O)C2CCC(c3cccnc3)N2)c1 (stereo not drawn) [Example 21, N-(3-benzoylphenyl)-2-(3-pyridyl)-5-pyrrolidinecarboxamide]
260 | O=C(Nc1cccc(C(=O)c2ccccc2)c1)NC1CSC(c2cccnc2)S1 (stereo not drawn) [Example 17b, N-(3-benzoylphenyl) N'-[2-(3-pyridinyl)dithiolan-4-yl] urea]
150 | NC(=O)N1C(CC(=O)Nc2cccc(C(=O)c3ccccc3)c2)CSC1c1cccnc1 (stereo not drawn) [Example 14, N-(3-benzoylphenyl) 2-(3-pyridinyl)-3-carbamoylthiazolid-4-ylacetamide]
6 | COc1ccc(C(=O)c2cccc(NC(=O)C3CSC(c4cccnc4)N3)c2)cc1OC (stereo not drawn) [Example 8, N-[3-(3,4-dimethoxybenzoyl)phenyl] 2-(3-pyridinyl)-4-thiazolidinecarboxamide dihydrochloride]
33 | O=C(c1cccc(NC(=O)C2CSC(c3cccnc3)N2)c1)c1ccc2c(c1)OCO2 (stereo not drawn) [Example 6, N-[3-(3,4-methylenedioxybenzoyl)phenyl] 2-(3-pyridinyl)-4-thiazolidinecarboxamide dihydrochloride]
34 | COc1ccc(C(=O)c2cccc(NC(=O)C3CSC(c4cccnc4)N3)c2)cc1 (stereo not drawn) [Example 5, N-[3-(4-methoxybenzoyl)phenyl] 2-(3-pyridinyl)-4-thiazolidinecarboxamide dihydrochloride]
620 | CN(C(=O)C1CSC(c2cccnc2)N1)c1cccc(C(=O)c2ccccc2)c1 (stereo not drawn) [Example 15, N-(3-benzoylphenyl) N-methyl 2-(3-pyridinyl)-4-thiazolidinecarboxamide dihydrochloride]
5 | O=C(c1ccccc1)c1cccc(NC(=O)C2CSC(c3cccnc3)N2)c1 (stereo not drawn) [Example 1, N-(3-benzoylphenyl) 2-(3-pyridinyl)-4-thiazolidine carboxamide]
35 | COc1cc(C(=O)c2cccc(NC(=O)NC3CSC(c4cccnc4)S3)c2)cc(OC)c1OC (stereo not drawn) [Example 18b, N-[3-(3,4,5-trimethoxybenzoyl)phenyl] N'-[2-(3-pyridinyl)dithiolan-4-yl] urea]
23 | O=C(c1ccccc1)c1cccc(NC(=O)C2CSC(c3cccnc3)S2)c1 (stereo not drawn) [Example 9, N-(3-benzoylphenyl) 2-(3-pyridinyl)-4-dithiolanecarboxamide]
5800 | O=C(CC1CSC(c2cccnc2)N1)Nc1cccc(C(=O)c2ccccc2)c1 (stereo not drawn) [Example 13, N-(3-benzoylphenyl) 2-(3-pyridinyl)-thiazolid-4-ylacetamide]

Compound | Ki [nM]
CC(C)(C)OC(=O)N1C(C(=O)Nc2cccc(C(=O)c3ccccc3)c2)CSC1c1cccnc1 (stereo not drawn) [Example 2, N-(3-benzoylphenyl) 2-(3-pyridinyl)-3-tert-butoxycarbonyl-4-thiazolidinecarboxamide] | 100000
